# Patent US20060025390A1, “Treatment of hormone allergy and related symptoms and disorders” (priority 2004, published 2006)
# B1: myelin basic protein (protein, UniProt P02686 1-304, looked up)
# Myelin basic protein: MGNHAGKRELNAEKASTNSETNRGESEKKRNLGELSRTTSEDNEVFGEADANQNNGTSSQDTAVTDSKRTADPKNAWQDAHPADPGSRPHLIRLFSRDAPGREDNTFKDRPSESDELQTIQEDSAATSESLDVMASQKRPSQRHGSKYLATASTMDHARHGFLPRHRDTGILDSIGRFFGGDRGAPKRGSGKDSHHPARTAHYGSLPQKSHGRTQDENPVVHFFKNIVTPRTPPPSQGKGRGLSLSRFSWGAEGQRPGFGYGGRASDYKSAHKGFKGVDAQGTLSKIFKLGGRDSRSGSPMARR
# Assays:
# [1] = test system: serum IgM anti-17-α-hydroxyprogesterone antibodies; experiment: ELISA binding of IgM 17-α-hydroxyprogesterone antibodies to different hormones in solid phase; set-up: species or system human; details: for IgM binding (optical density): hormone in solid phase, 405 nm; for IgM % reaction: relative to 17-α-hydroxyprogesterone = 100
# Procedure: (§1) The ELISA inhibition method was used to determine specificity and cross-reactivity between different hormones and to ensure the degree of human IgG, IgM and IgE estrogen or progesterone binding to estrogen or progesterone in solid phase. […] 100 μl of sera from three different patients with high IgG, IgM or IgE antibodies against 17-α-hydroxyprogesterone was added to all wells. After shaking and incubation for 1 hr at room temperature, addition of enzyme labeled anti-human IgG, IgM or IgE, repeat of incubation, washing, and addition of substrate, color development was measured at 405 nm. Results were calculated as percentage of anti-17-α-hydroxyprogesterone binding to 17-α-hydroxyprogesterone and other hormones. Also, anti-estrogen binding to estrogen and other hormones in solid phase by progesterone in liquid phase was performed and calculated in a similar manner.
# (§2) Human sera containing 17-α-hydroxyprogesterone IgG-, IgM- and IgE-binding antibodies were reacted against progesterone, estrogen, hydrocortisone and cholesterol. In comparison to 100% binding of anti-17-α-hydroxyprogesterone-binding to 17-α-hydroxyprogesterone, the IgG anti-17-α-hydroxyprogesterone-binding to progesterone, estrogen, hydrocortisone and cholesterol was 69-77%, 25-30%, 39-53%, and less than 10% respectively (Table 4). The % binding of serum IgM and IgE anti-17-α-hydroxyprogesterone to 17-1-hydroxyprogesterone, progesterone, estrogen, hydrocortisone and cholesterol was similar to the binding of IgG. This binding of anti-17-α-hydroxyprogesterone to progesterone was the highest, followed by hydrocortisone, then estrogen, to almost no binding with cholesterol. Similar to this, human sera with IgG, IgM and IgE binding antibodies against estrogen were reacted with progesterone, 17-α-hydroxyprogesterone, hydrocortisone and cholesterol, in the presence of estrogen.
# [2] = test system: serum IgG anti-17-α-hydroxyprogesterone antibodies; experiment: ELISA binding of IgG 17-α-hydroxyprogesterone antibodies to different hormones in solid phase; set-up: species or system human; details: for IgG anti-17-α-hydroxyprogesterone binding: in comparison to 100% binding to 17-α-hydroxyprogesterone, over three sera; for IgG binding (optical density): hormone in solid phase, 405 nm; for IgG % reaction: relative to 17-α-hydroxyprogesterone = 100
# Procedure: as §1, §2
# [3] = test system: serum IgG anti-estrogen antibodies; experiment: ELISA binding of IgG estrogen antibodies to different hormones in solid phase; set-up: species or system human; details: for IgG anti-estrogen binding: relative to estrogen, over three sera; for IgG binding (optical density): hormone in solid phase, 405 nm; for IgG % reaction: relative to estrogen = 100
# Procedure: as §1, §2
# [4] = test system: serum IgE anti-estrogen antibodies; experiment: ELISA binding of IgE estrogen antibodies to different hormones in solid phase; set-up: species or system human; details: for IgE anti-estrogen binding: relative to estrogen, over three sera; for IgE binding (optical density): hormone in solid phase, 405 nm; for IgE % reaction: relative to estrogen = 100
# Procedure: as §1, §2
# [5] = test system: serum IgE anti-17-α-hydroxyprogesterone antibodies; experiment: ELISA binding of IgE 17-α-hydroxyprogesterone antibodies to different hormones in solid phase; set-up: species or system human; details: for IgE binding (optical density): hormone in solid phase, 405 nm; for IgE % reaction: relative to 17-α-hydroxyprogesterone = 100
# Procedure: as §1, §2
# [6] = test system: serum IgM anti-estrogen antibodies; experiment: ELISA binding of IgM estrogen antibodies to different hormones in solid phase; set-up: species or system human; details: for IgM anti-estrogen binding: relative to estrogen, over three sera; for IgM binding (optical density): hormone in solid phase, 405 nm; for IgM % reaction: relative to estrogen = 100
# Procedure: as §1, §2
# [7] = test system: serum IgG anti-estrogen antibodies; experiment: Competition ELISA: absorption of serum IgG anti-estrogen with specific and non-specific antigens; type: binding, human; details: for inhibition of anti-estrogen binding to estrogen (IgG): antigen in liquid phase, over the three sera; for IgG level after absorption: absorption with 250 μg/mL, optical density 405 nm
# Procedure: (§3) For this, microtiter plates were coated with hormones and blocked by the addition of 2% BSA in PBST. 100 μl of serum diluent buffer was added to all wells. […] After 60 minutes incubation 100 μl serum anti-estrogen or anti-progesterone was added to all wells. […] Results were calculated as percentage of inhibition in antigen-antibody reaction.
# (§4) To examine whether antibodies to estrogen or progesterone are specific or cross-reactive, we performed competition ELISA by adding specific and non-specific antigens in liquid phase and examined prevention of serum antibody binding to the antigen in solid phase. […] For IgE anti-estrogen, this inhibition by estrogen-BSA was between 54-62%, and with progesterone-BSA, from 37-43%. […] This cross-reaction between estrogen and progesterone antibodies may be due to structural similarities between these two hormones.
# [8] = test system: serum IgE anti-estrogen antibodies; experiment: Competition ELISA: absorption of serum IgE anti-estrogen with specific and non-specific antigens; type: binding, human; details: for inhibition of IgE anti-estrogen binding: antigen in liquid phase, over the three sera; for IgE level after absorption: absorption with 250 μg/mL, optical density 405 nm
# Procedure: as §3, §4
# [9] = serum sample 1, before absorption 1.83
# [10] = serum sample 2, before absorption 1.25
# [11] = serum sample 3, before absorption 0.76
# [12] = serum sample 1, before absorption 2.15
# [13] = serum sample 2, before absorption 1.66
# [14] = serum sample 3, before absorption 1.34
Molecule,IgM binding (optical density) ([1]; sample 1),IgM binding (optical density) ([1]; sample 2),IgM binding (optical density) ([1]; sample 3),IgG anti-17-α-hydroxyprogesterone binding [2],IgG binding (optical density) ([2]; sample 1),IgG % reaction ([2]; sample 1) [%],IgG binding (optical density) ([2]; sample 2),IgG binding (optical density) ([2]; sample 3),IgG binding (optical density) ([3]; sample 1),IgG binding (optical density) ([3]; sample 2),IgG binding (optical density) ([3]; sample 3),IgE binding (optical density) ([4]; sample 1),IgE binding (optical density) ([4]; sample 2),IgE % reaction ([4]; sample 2) [%],IgE binding (optical density) ([4]; sample 3),IgE % reaction ([4]; sample 3) [%],IgE binding (optical density) ([5]; sample 1),IgE binding (optical density) ([5]; sample 2),IgE % reaction ([5]; sample 2) [%],IgE binding (optical density) ([5]; sample 3),further results
"CC(C)CCC[C@@H](C)[C@H]1CC[C@H]2[C@@H]3CC=C4C[C@@H](O)CC[C@]4(C)[C@H]3CC[C@]12C [C, Cholesterol]",0.18,0.19,0.15,less than 10%,0.21,−13,0.12,0.17,0.12,0.19,0.15,0.15,0.21,−14,0.28,−17,0.2,0.23,−10,0.18,IgG anti-estrogen binding [3]: not significant; IgE anti-estrogen binding [4]: not significant; IgM anti-estrogen binding [6]: not significant; IgM binding (optical density) ([6]; sample 1): 0.13; IgM binding (optical density) ([6]; sample 2): 0.25; IgM % reaction ([6]; sample 2): −12%; IgM binding (optical density) ([6]; sample 3): 0.24; IgM % reaction ([6]; sample 3): −18%
"C[C@]12CCC(=O)C=C1CC[C@@H]1[C@@H]2[C@@H](O)C[C@@]2(C)[C@H]1CC[C@]2(O)C(=O)CO [HC, Hydrocortisone]",0.47,0.5,0.51,39-53%,0.69,−43,0.37,0.36,0.15,0.31,0.18,0.17,0.29,−19,0.25,−16,0.58,1.2,−50,0.68,IgM % reaction ([1]; sample 1): −36%; IgM % reaction ([1]; sample 2): −39%; IgM % reaction ([1]; sample 3): −55%; IgG % reaction ([2]; sample 2): −39%; IgG % reaction ([2]; sample 3): −53%; IgG anti-estrogen binding [3]: not significant; IgG % reaction ([3]; sample 2): −17%; IgE anti-estrogen binding [4]: not significant; IgE % reaction ([5]; sample 1): −40%; IgE % reaction ([5]; sample 3): −39%; IgM anti-estrogen binding [6]: not significant; IgM binding (optical density) ([6]; sample 1): 0.16; IgM binding (optical density) ([6]; sample 2): 0.44; IgM % reaction ([6]; sample 2): −21%; IgM binding (optical density) ([6]; sample 3): 0.23; IgM % reaction ([6]; sample 3): −18%
"CC(=O)[C@@]1(O)CC[C@H]2[C@@H]3CCC4=CC(=O)CC[C@]4(C)[C@H]3CC[C@@]21C [HP, 17-α-hydroxy-progesterone]",1.3,1.2,0.92,100%,1.6,−100,0.95,0.68,0.42,0.75,0.52,0.22,0.65,−43,0.73,−46,1.45,2.4,−100,1.1,IgM % reaction ([1]; sample 1): −100%; IgM % reaction ([1]; sample 2): −100%; IgM % reaction ([1]; sample 3): −100%; IgG % reaction ([2]; sample 2): −100%; IgG % reaction ([2]; sample 3): −100%; IgG % reaction ([3]; sample 1): −35%; IgG % reaction ([3]; sample 2): −42%; IgG % reaction ([3]; sample 3): −57%; IgE % reaction ([4]; sample 1): −28%; IgE % reaction ([5]; sample 1): −100%; IgE % reaction ([5]; sample 3): −100%; IgM binding (optical density) ([6]; sample 1): 0.34; IgM % reaction ([6]; sample 1): −38%; IgM binding (optical density) ([6]; sample 2): 0.88; IgM % reaction ([6]; sample 2): −42%; IgM binding (optical density) ([6]; sample 3): 0.59; IgM % reaction ([6]; sample 3): −45%
bovine serum albumin [BSA],–,–,–,–,–,–,–,–,–,–,–,–,–,–,–,–,–,–,–,–,"inhibition of anti-estrogen binding to estrogen (IgG) [7]: did not significantly absorb; IgG level after absorption [7, 9]: 1.79; IgG level after absorption [7, 10]: 1.13; IgG level after absorption [7, 11]: 0.81; inhibition of IgE anti-estrogen binding [8]: did not significantly absorb; IgE level after absorption [8, 12]: 2.24; IgE level after absorption [8, 13]: 1.53; IgE level after absorption [8, 14]: 1.26"
B1,–,–,–,–,–,–,–,–,–,–,–,–,–,–,–,–,–,–,–,–,"inhibition of anti-estrogen binding to estrogen (IgG) [7]: did not significantly absorb; IgG level after absorption [7, 9]: 1.67; IgG level after absorption [7, 10]: 1.13; IgG level after absorption [7, 11]: 0.68; inhibition of IgE anti-estrogen binding [8]: did not significantly absorb; IgE level after absorption [8, 12]: 2.05; IgE level after absorption [8, 13]: 1.73; IgE level after absorption [8, 14]: 1.11"
